# Measured values as given in PubChem BioAssay (NCI).
#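 Compound exposure: 48 hours, 5 concentrations, 96-well plates. The concentration for full growth arrest is given as TGI.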
# Experiments:
# Experiment in all cases: NCI tumour cell line growth inhibition, 48 h
# 786-0 renal = test system: 786-0 renal
# SK-MEL-2 melanoma = test system: SK-MEL-2 melanoma
# RXF 393 renal = test system: RXF 393 renal
# SW-620 colon = test system: SW-620 colon
# HOP-62 NSCLC = test system: HOP-62 NSCLC
# UACC-62 melanoma = test system: UACC-62 melanoma
# MCF7 breast = test system: MCF7 breast
# RPMI-8226 leukemia = test system: RPMI-8226 leukemia
# ACHN renal = test system: ACHN renal
# NCI-H522 lung = test system: NCI-H522 lung
# HCT-116 colon = test system: HCT-116 colon
# TK-10 renal = test system: TK-10 renal
# MDA-MB-435 = test system: MDA-MB-435
# A549 NSCLC = test system: A549 NSCLC
# HCT-15 colon = test system: HCT-15 colon
# T-47D breast = test system: T-47D breast
# K-562 leukemia = test system: K-562 leukemia
# U251 CNS = test system: U251 CNS
# OVCAR-4 ovarian = test system: OVCAR-4 ovarian
# SF-295 CNS = test system: SF-295 CNS
# OVCAR-3 ovarian = test system: OVCAR-3 ovarian
# MDA-MB-231 breast = test system: MDA-MB-231 breast
# SF-268 CNS = test system: SF-268 CNS
# OVCAR-5 ovarian = test system: OVCAR-5 ovarian
# COLO 205 colon = test system: COLO 205 colon
# SK-MEL-28 melanoma = test system: SK-MEL-28 melanoma
# NCI-H226 lung = test system: NCI-H226 lung
# SK-OV-3 ovarian = test system: SK-OV-3 ovarian
# IGROV1 ovarian = test system: IGROV1 ovarian
# MOLT-4 leukemia = test system: MOLT-4 leukemia
# M14 melanoma = test system: M14 melanoma
# BT-549 breast = test system: BT-549 breast
# MALME-3M melanoma = test system: MALME-3M melanoma
# HS 578T breast = test system: HS 578T breast
# HCC-2998 colon = test system: HCC-2998 colon
# A498 renal = test system: A498 renal
# SNB-19 CNS = test system: SNB-19 CNS
# NCI-H460 lung = test system: NCI-H460 lung
# SF-539 CNS = test system: SF-539 CNS
# SK-MEL-5 melanoma = test system: SK-MEL-5 melanoma
# CAKI-1 renal = test system: CAKI-1 renal
# NCI-H23 lung = test system: NCI-H23 lung
# EKVX NSCLC = test system: EKVX NSCLC
# NCI/ADR-RES ovarian = test system: NCI/ADR-RES ovarian
# HOP-92 NSCLC = test system: HOP-92 NSCLC
# MDA-N = test system: MDA-N
# UO-31 renal = test system: UO-31 renal
# SR leukemia = test system: SR leukemia
# SN12C renal = test system: SN12C renal
# PC-3 prostate = test system: PC-3 prostate
# KM12 colon = test system: KM12 colon
# OVCAR-8 ovarian = test system: OVCAR-8 ovarian
# HT29 colon = test system: HT29 colon
# SNB-75 CNS = test system: SNB-75 CNS
# LOX IMVI melanoma = test system: LOX IMVI melanoma
# UACC-257 melanoma = test system: UACC-257 melanoma
# DU-145 prostate = test system: DU-145 prostate
# CCRF-CEM leukemia = test system: CCRF-CEM leukemia
smiles,measurement,setting,value
Nc1ncnc2c1ncn2CCCCC(=O)O,TGI,786-0 renal,> 100 µM
same,TGI,SK-MEL-2 melanoma,> 100 µM
same,TGI,RXF 393 renal,> 100 µM
same,TGI,SW-620 colon,> 100 µM
same,TGI,HOP-62 NSCLC,> 100 µM
same,TGI,UACC-62 melanoma,> 100 µM
same,TGI,MCF7 breast,> 100 µM
same,TGI,RPMI-8226 leukemia,> 100 µM
same,TGI,ACHN renal,> 100 µM
same,TGI,NCI-H522 lung,> 100 µM
same,TGI,HCT-116 colon,> 100 µM
same,TGI,TK-10 renal,> 100 µM
same,TGI,MDA-MB-435,> 100 µM
same,TGI,A549 NSCLC,> 100 µM
same,TGI,HCT-15 colon,> 100 µM
same,TGI,T-47D breast,> 100 µM
same,TGI,K-562 leukemia,> 100 µM
same,TGI,U251 CNS,> 100 µM
same,TGI,OVCAR-4 ovarian,> 100 µM
same,TGI,SF-295 CNS,> 100 µM
same,TGI,OVCAR-3 ovarian,> 100 µM
same,TGI,MDA-MB-231 breast,> 100 µM
same,TGI,SF-268 CNS,> 100 µM
same,TGI,OVCAR-5 ovarian,> 100 µM
same,TGI,COLO 205 colon,> 100 µM
same,TGI,SK-MEL-28 melanoma,> 100 µM
same,TGI,NCI-H226 lung,> 100 µM
same,TGI,SK-OV-3 ovarian,> 100 µM
same,TGI,IGROV1 ovarian,> 100 µM
same,TGI,MOLT-4 leukemia,> 100 µM
same,TGI,M14 melanoma,> 100 µM
same,TGI,BT-549 breast,> 100 µM
same,TGI,MALME-3M melanoma,> 100 µM
same,TGI,HS 578T breast,> 100 µM
same,TGI,HCC-2998 colon,> 100 µM
same,TGI,A498 renal,> 100 µM
same,TGI,SNB-19 CNS,> 100 µM
same,TGI,NCI-H460 lung,> 100 µM
same,TGI,SF-539 CNS,> 100 µM
same,TGI,SK-MEL-5 melanoma,> 100 µM
same,TGI,CAKI-1 renal,> 100 µM
same,TGI,NCI-H23 lung,> 100 µM
same,TGI,EKVX NSCLC,> 100 µM
same,TGI,NCI/ADR-RES ovarian,> 100 µM
same,TGI,HOP-92 NSCLC,> 100 µM
same,TGI,MDA-N,> 100 µM
same,TGI,UO-31 renal,> 100 µM
same,TGI,SR leukemia,> 100 µM
same,TGI,SN12C renal,> 100 µM
same,TGI,PC-3 prostate,> 100 µM
same,TGI,KM12 colon,> 100 µM
same,TGI,OVCAR-8 ovarian,> 100 µM
same,TGI,HT29 colon,> 100 µM
same,TGI,SNB-75 CNS,> 100 µM
same,TGI,LOX IMVI melanoma,> 100 µM
same,TGI,UACC-257 melanoma,> 100 µM
same,TGI,DU-145 prostate,> 100 µM
CC(=O)c1cccc(Nc2nc3ccccc3c3[nH]c4ccccc4c23)c1,TGI,786-0 renal,11.7 µM
same,TGI,SK-MEL-2 melanoma,24.2 µM
same,TGI,SW-620 colon,> 100 µM
same,TGI,HOP-62 NSCLC,42 µM
same,TGI,UACC-62 melanoma,5.71 µM
same,TGI,MCF7 breast,4.22 µM
same,TGI,RPMI-8226 leukemia,9.25 µM
same,TGI,ACHN renal,40.5 µM
same,TGI,NCI-H522 lung,8.11 µM
same,TGI,HCT-116 colon,> 100 µM
same,TGI,TK-10 renal,37 µM
same,TGI,MDA-MB-435,71.1 µM
same,TGI,A549 NSCLC,15.3 µM
same,TGI,HCT-15 colon,> 100 µM
same,TGI,T-47D breast,33.5 µM
same,TGI,K-562 leukemia,> 100 µM
same,TGI,U251 CNS,16.4 µM
same,TGI,SF-295 CNS,15.9 µM
same,TGI,OVCAR-3 ovarian,6.56 µM
same,TGI,MDA-MB-231 breast,51.6 µM
same,TGI,SF-268 CNS,17.3 µM
same,TGI,OVCAR-5 ovarian,96.3 µM
same,TGI,COLO 205 colon,5.81 µM
same,TGI,SK-OV-3 ovarian,43.7 µM
same,TGI,IGROV1 ovarian,22.3 µM
same,TGI,M14 melanoma,> 100 µM
same,TGI,BT-549 breast,> 100 µM
same,TGI,MALME-3M melanoma,13.2 µM
same,TGI,HS 578T breast,> 100 µM
same,TGI,SNB-19 CNS,> 100 µM
same,TGI,NCI-H460 lung,4.36 µM
same,TGI,SF-539 CNS,18 µM
same,TGI,CAKI-1 renal,23.4 µM
same,TGI,NCI-H23 lung,> 100 µM
same,TGI,EKVX NSCLC,21.4 µM
same,TGI,NCI/ADR-RES ovarian,> 100 µM
same,TGI,HOP-92 NSCLC,22.2 µM
same,TGI,MDA-N,> 100 µM
same,TGI,UO-31 renal,> 100 µM
same,TGI,SN12C renal,> 100 µM
same,TGI,PC-3 prostate,40.9 µM
same,TGI,KM12 colon,> 100 µM
same,TGI,OVCAR-8 ovarian,74.9 µM
same,TGI,CCRF-CEM leukemia,> 100 µM
same,TGI,HT29 colon,17 µM
same,TGI,UACC-257 melanoma,> 100 µM
same,TGI,DU-145 prostate,> 100 µM
